Measured values: paper PMC7673538 (PLoS Biology, 2020)
Values joined by “and” are separate entries in the source; they are usually repeats but may differ in a detail not shown here. Identical values can stand only once. Like-named read-outs stand apart in the source and are kept apart here.

Columns and labels:
EV-D68 = experiment: microbe, parasite or virus in culture; assay type: cell-based, enterovirus D68
CV-B3 = experiment: microbe, parasite or virus in culture; assay type: cell-based, coxsackievirus B3
human NET = biological target: T1, human NET (Homo sapiens, UniProt P23975); assay type: cell-based; conditions: for NET, Mean (Figure 8B): Control = 100; for NET, Mean as % (Figure 8B): Control = 100%
T1 construct: expressed in transfected cells; host or cells: HEK293 (gift of Dr. Hoener, F. Hoffmann-La Roche)

EV-A71 = experiment: microbe, parasite or virus in culture; assay type: cell-based, enterovirus A71
HRV-A2 = experiment: microbe, parasite or virus in culture; assay type: cell-based, human rhinovirus

T1 sequence (P23975 whole entry): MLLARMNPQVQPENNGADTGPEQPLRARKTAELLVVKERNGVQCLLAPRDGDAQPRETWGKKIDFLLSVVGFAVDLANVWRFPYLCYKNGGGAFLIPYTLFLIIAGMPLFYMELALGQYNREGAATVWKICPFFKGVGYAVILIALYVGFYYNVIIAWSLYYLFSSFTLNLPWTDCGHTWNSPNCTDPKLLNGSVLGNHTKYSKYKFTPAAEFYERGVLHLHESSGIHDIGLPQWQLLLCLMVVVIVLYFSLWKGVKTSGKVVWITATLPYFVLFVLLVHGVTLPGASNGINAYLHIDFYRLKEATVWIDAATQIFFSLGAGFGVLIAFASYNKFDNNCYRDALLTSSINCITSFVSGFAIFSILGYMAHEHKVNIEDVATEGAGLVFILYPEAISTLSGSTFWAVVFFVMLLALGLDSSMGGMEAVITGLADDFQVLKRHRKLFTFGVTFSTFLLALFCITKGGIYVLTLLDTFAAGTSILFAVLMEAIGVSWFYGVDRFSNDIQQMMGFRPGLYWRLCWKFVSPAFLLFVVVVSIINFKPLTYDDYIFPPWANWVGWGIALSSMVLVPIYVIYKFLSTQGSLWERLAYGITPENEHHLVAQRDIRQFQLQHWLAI

## O=C(c1cc[nH]c1)N(Cc1ccc(F)cc1)c1ccccc1 [Compound 12b, N-(4-Fluorobenzyl)-N-phenyl-1H-pyrrole-3-carboxamide]
EV-D68; Concentration 0.001 µM
  Figure 7 dose-response raw data, EV-D68 (triplicate values): 11.1333 and 12.4782 and 12.9265
EV-D68; Concentration 0.0046 µM
  Figure 7 dose-response raw data, EV-D68 (triplicate values): 12.1793 and 12.9265 and 15.0187
EV-D68; Concentration 0.0137 µM
  Figure 7 dose-response raw data, EV-D68 (triplicate values): 11.1333 and 12.4782 and 12.9265
EV-D68; Concentration 0.0412 µM
  Figure 7 dose-response raw data, EV-D68 (triplicate values): 10.386 and 11.4321 and 12.9265
EV-D68; Concentration 0.1235 µM
  Figure 7 dose-response raw data, EV-D68 (triplicate values): 107.007 and 105.506 and 109.76
EV-D68; Concentration 0.3704 µM
  Figure 7 dose-response raw data, EV-D68 (triplicate values): 98.999 and 100.501 and 112.888
EV-D68; Concentration 1.1111 µM
  Figure 7 dose-response raw data, EV-D68 (triplicate values): 104.38 and 102.252 and 111.637
EV-D68; Concentration 3.3333 µM
  Figure 7 dose-response raw data, EV-D68 (triplicate values): 103.504 and 113.389
EV-D68; Concentration 10 µM
  Figure 7 dose-response raw data, EV-D68 (triplicate values): 95.6204 and 100.626 and 112.763
EV-D68; Enterovirus D, EVD68, HeLa R19, read-out: EC50 EV-D68
  EC50: 86 ± 7.1 nM
EV-D68; Enterovirus D, EVD68, HeLa R19, read-out: Table in Figure 7A, EVD68, AVERAGE
  EC50: 85.7 nM
EV-D68; Enterovirus D, EVD68, HeLa R19, read-out: Table in Figure 7A, EVD68, exp1-exp3
  EC50: 88 nM
EV-D68; read-out: Table in Figure 7A, EVD68, exp1-exp3
  EC50: 93 nM and 76 nM
CV-B3; Concentration 0.001 µM
  Figure 7 dose-response raw data, CV-B3 (triplicate values): 12.7273 and 16.4436 and 14.7652
CV-B3; Concentration 0.0046 µM
  Figure 7 dose-response raw data, CV-B3 (triplicate values): 88.2521 and 78.519 and 79.7121
CV-B3; Concentration 0.0137 µM
  Figure 7 dose-response raw data, CV-B3 (triplicate values): 101.732 and 101.506 and 105.007
CV-B3; Concentration 0.0412 µM
  Figure 7 dose-response raw data, CV-B3 (triplicate values): 102.861 and 101.167 and 103.426
CV-B3; Concentration 0.1235 µM
  Figure 7 dose-response raw data, CV-B3 (triplicate values): 99.9247 and 100.263 and 102.748
CV-B3; Concentration 0.3704 µM
  Figure 7 dose-response raw data, CV-B3 (triplicate values): 101.957 and 103.877 and 102.635
CV-B3; Concentration 1.1111 µM
  Figure 7 dose-response raw data, CV-B3 (triplicate values): 101.393 and 99.9247 and 103.426
CV-B3; Concentration 3.3333 µM
  Figure 7 dose-response raw data, CV-B3 (triplicate values): 102.974 and 100.151 and 104.555
CV-B3; Concentration 10 µM
  Figure 7 dose-response raw data, CV-B3 (triplicate values): 101.167 and 95.9721 and 104.668
CV-B3; Enterovirus B, CVB3, HeLa R19, read-out: Table in Figure 7A, CV-B3, AVERAGE
  EC50: 2.9 nM
CV-B3; Enterovirus B, CVB3, HeLa R19, read-out: Table in Figure 7A, CV-B3, exp1-exp3
  EC50: 2.98 nM
CV-B3; read-out: Table in Figure 7A, CV-B3, exp1-exp3
  EC50: 3.2 nM and 2.55 nM
Human NET; 1µM
  NET, Mean (Figure 8B): 100
  NET, Mean as % (Figure 8B): 100%
Human NET; 100µM
  NET, Mean (Figure 8B): 103.417
  NET, Mean as % (Figure 8B): 103%
Human NET; HEK293 cells expressing human NET, 1 μM or 100 μM
  inhibition of NET function (in words): neither 12a, 19b, 19d, nor the combined compound 12b inhibited
EV-A71; Concentration 0.0046 µM
  Figure 7 dose-response raw data, EV-A71 (triplicate values): 8.524 and 14.1813 and 13.8349
EV-A71; Concentration 0.0137 µM
  Figure 7 dose-response raw data, EV-A71 (triplicate values): 8.178 and 10.6023 and 11.4104
EV-A71; Concentration 0.0412 µM
  Figure 7 dose-response raw data, EV-A71 (triplicate values): 8.755 and 10.1405 and 13.8349
EV-A71; Concentration 0.1235 µM
  Figure 7 dose-response raw data, EV-A71 (triplicate values): 8.6396 and 9.794 and 10.7177
EV-A71; Concentration 0.3704 µM
  Figure 7 dose-response raw data, EV-A71 (triplicate values): 31.7298 and 16.0285 and 26.5345
EV-A71; Concentration 1.1111 µM
  Figure 7 dose-response raw data, EV-A71 (triplicate values): 89.9407 and 116.561 and 102.065
EV-A71; Concentration 3.3333 µM
  Figure 7 dose-response raw data, EV-A71 (triplicate values): 91.1267 and 117.088 and 97.8476
EV-A71; Concentration 11.1111 µM
  Figure 7 dose-response raw data, EV-A71 (triplicate values): 100.747 and 119.064 and 107.468
EV-A71; Concentration 33.3333 µM
  Figure 7 dose-response raw data, EV-A71 (triplicate values): 107.747 and 119.064 and 117.468
EV-A71; Concentration 100 µM
  Figure 7 dose-response raw data, EV-A71 (triplicate values): 110.747 and 119.064 and 107.468
EV-A71; Enterovirus A, EVA71, HeLa R19, read-out: Table in Figure 7A, EV-A71, AVERAGE
  EC50: 490 nM
HRV-A2; Concentration 0.0046 µM
  Figure 7 dose-response raw data, HRV-A2 (triplicate values): 14.2402 and 14.6225 and 13.0933
HRV-A2; Concentration 0.0137 µM
  Figure 7 dose-response raw data, HRV-A2 (triplicate values): 14.2402 and 14.6225 and 13.0933
HRV-A2; Concentration 0.0412 µM
  Figure 7 dose-response raw data, HRV-A2 (triplicate values): 15.1004 and 21.3125 and 13.3801
HRV-A2; Concentration 0.1235 µM
  Figure 7 dose-response raw data, HRV-A2 (triplicate values): 12.6155 and 13.1889 and 12.7111
HRV-A2; Concentration 0.3704 µM
  Figure 7 dose-response raw data, HRV-A2 (triplicate values): 13.0933 and 13.1889 and 13.7623
HRV-A2; Concentration 1.1111 µM
  Figure 7 dose-response raw data, HRV-A2 (triplicate values): 12.6155 and 14.1446 and 14.4314
HRV-A2; Concentration 3.3333 µM
  Figure 7 dose-response raw data, HRV-A2 (triplicate values): 83.2845 and 84.4313 and 84.7181
HRV-A2; Concentration 11.1111 µM
  Figure 7 dose-response raw data, HRV-A2 (triplicate values): 99.5652 and 104.147 and 110.034
HRV-A2; Concentration 33.3333 µM
  Figure 7 dose-response raw data, HRV-A2 (triplicate values): 100.093 and 102.52 and 105.578
HRV-A2; Concentration 100 µM
  Figure 7 dose-response raw data, HRV-A2 (triplicate values): 100.093 and 102.52 and 105.578
HRV-A2; Human rhinovirus sp., HRV2 / HRVA2, HeLa R19, read-out: Table in Figure 7A, HRV2, AVERAGE
  EC50: 2750 nM
